“Also recorded” adds a separate entry of the source. Like-named read-outs stand apart in the source and are kept apart here.
Legend:
[1] = in vivo; details: male, ICR, mouse, po; for Cmax: oral gavage; for half-life: t1/2
[2] = for Drug concentration, time course: normal mice; for Drug concentration, time course / Cmax / Tmax / t1/2 / AUC: oral gavage, 3mg/kg; for Cmax / Tmax / t1/2 / AUC / Tmax determined from the drug concentration in kidney and plasma (and liver): mouse; for AUC: AUC for 24 hr; for Tmax determined from the drug concentration in kidney and plasma (and liver): tissue not separated
[3] = tested on: diabetes mellitus patients; assay: Acute kidney injury; type: in vivo, human; details: for Association with AKI, Unadjusted (95% CI) / Association with AKI, Adjusted (95% CI): metformin as reference; for Association with AKI, Adjusted (95% CI): multivariate; for Association with AKI compared to control drug metformin, in words: multivariate analysis; for Events During the 90 days (AKI): primary endpoint, first 90 days, patients above 55 years; for Total endpoint (AKI events): primary plus secondary endpoint; for Events at secondary end (AKI): secondary endpoint, after 90 days of hospital admission; for Total Percent (incidence rate of AKI at the end of the study): share of the 4966 total outcomes
[4] = Endpoint Diagnosis with 1047 Outcome
[5] = Secondary Diagnosis with 3919 Outcomes

Cn1c(=O)cc(N2CCC[C@@H](N)C2)n(Cc2ccccc2C#N)c1=O [Alogliptin, alogliptin]
Tmax [1]: 1 h | Tmax ([1]; 3 mg/kg): 1 h | Cmax ([1]; 3 mg/kg, Kidney): 8560 ng/mL | Cmax ([1]; 3 mg/kg, Liver): 6730 ng/mL | Cmax ([1]; 3 mg/kg, Plasma): 943 ng/mL | half-life ([1]; 3 mg/kg): 2.4 h | Drug concentration, time course ([2]; Kidney, 0h): 0 | Drug concentration, time course ([2]; Kidney, 3h): 6700 | Drug concentration, time course ([2]; Kidney, 6h): 4300 | Drug concentration, time course ([2]; Kidney, 9h): 2350 | Drug concentration, time course ([2]; Kidney, 12h): 100 | Drug concentration, time course ([2]; Kidney, 15h): 50 | Drug concentration, time course ([2]; Kidney, 18h): 0 | Drug concentration, time course ([2]; Kidney, 21h): 0 | Drug concentration, time course ([2]; Kidney, 24h): 0 | Drug concentration, time course ([2]; Liver, 0h): 0 | Drug concentration, time course ([2]; Liver, 3h): 6340 | Drug concentration, time course ([2]; Liver, 6h): 3500 | Drug concentration, time course ([2]; Liver, 9h): 1980 | Drug concentration, time course ([2]; Liver, 12h): 300 | Drug concentration, time course ([2]; Liver, 15h): 100 | Drug concentration, time course ([2]; Liver, 18h): 0 | Drug concentration, time course ([2]; Liver, 21h): 0 | Drug concentration, time course ([2]; Liver, 24h): 0 | Drug concentration, time course ([2]; Plasma, 0h): 0 | Drug concentration, time course ([2]; Plasma, 3h): 400 | Drug concentration, time course ([2]; Plasma, 6h): 250 | Drug concentration, time course ([2]; Plasma, 9h): 50 | Drug concentration, time course ([2]; Plasma, 12h): 0 | Drug concentration, time course ([2]; Plasma, 15h): 0 | Drug concentration, time course ([2]; Plasma, 18h): 0 | Drug concentration, time course ([2]; Plasma, 21h): 0 | Drug concentration, time course ([2]; Plasma, 24h): 0 | Association with AKI, Unadjusted (95% CI) [3, 4]: 1.83 (1.75–2.16) | Association with AKI, Adjusted (95% CI) [3, 4]: 1.43 (1.31–2.04) | Association with AKI, Unadjusted (95% CI) [3, 5]: 2.27 (1.08–3.12) | Association with AKI, Adjusted (95% CI) [3, 5]: 2.85 (2.26–3.07) | Association with AKI compared to control drug metformin, in words [3]: increased rate of AKI | Events During the 90 days (AKI) [3]: 91 | Total endpoint (AKI events) [3]: 364 | Events at secondary end (AKI) [3]: 273 | Total Percent (incidence rate of AKI at the end of the study) [3]: 7.33%

Cc1ccc([C@@H]2O[C@H](CO)[C@@H](O)[C@H](O)[C@H]2O)cc1Cc1ccc(-c2ccc(F)cc2)s1 [Canagliflozin, canagliflozin]
Cmax ([2]; Kidney): 3765 ng/mL | Tmax ([2]; Kidney): 1 h | t1/2 ([2]; Kidney): 2.4 h | AUC ([2]; Kidney): 12,100 ng/mL | Cmax ([2]; Liver): 3217 ng/mL | Tmax ([2]; Liver): 1 h | t1/2 ([2]; Liver): 2.8 h | AUC ([2]; Liver): 10,100 ng/mL | Cmax ([2]; Plasma): 542 ng/mL | Tmax ([2]; Plasma): 1 h | t1/2 ([2]; Plasma): 2.1 h | AUC ([2]; Plasma): 1432 ng/mL | Tmax determined from the drug concentration in kidney and plasma (and liver) [2]: 1 h | Drug concentration, time course ([2]; Kidney, 0h): 0 | Drug concentration, time course ([2]; Kidney, 3h): 5000 | Drug concentration, time course ([2]; Kidney, 6h): 4300 | Drug concentration, time course ([2]; Kidney, 9h): 900 | Drug concentration, time course ([2]; Kidney, 12h): 300 | Drug concentration, time course ([2]; Kidney, 15h): 0 | Drug concentration, time course ([2]; Kidney, 18h): 0 | Drug concentration, time course ([2]; Kidney, 21h): 0 | Drug concentration, time course ([2]; Kidney, 24h): 0 | Drug concentration, time course ([2]; Liver, 0h): 0 | Drug concentration, time course ([2]; Liver, 3h): 4700 | Drug concentration, time course ([2]; Liver, 6h): 3900 | Drug concentration, time course ([2]; Liver, 9h): 600 | Drug concentration, time course ([2]; Liver, 12h): 100 | Drug concentration, time course ([2]; Liver, 15h): 0 | Drug concentration, time course ([2]; Liver, 18h): 0 | Drug concentration, time course ([2]; Liver, 21h): 0 | Drug concentration, time course ([2]; Liver, 24h): 0 | Drug concentration, time course ([2]; Plasma, 0h): 0 | Drug concentration, time course ([2]; Plasma, 3h): 500 | Drug concentration, time course ([2]; Plasma, 6h): 300 | Drug concentration, time course ([2]; Plasma, 9h): 50 | Drug concentration, time course ([2]; Plasma, 12h): 0 | Drug concentration, time course ([2]; Plasma, 15h): 0 | Drug concentration, time course ([2]; Plasma, 18h): 0 | Drug concentration, time course ([2]; Plasma, 21h): 0 | Drug concentration, time course ([2]; Plasma, 24h): 0 | Association with AKI, Unadjusted (95% CI) [3, 4]: 0.85 (0.67–1.21) | Association with AKI, Adjusted (95% CI) [3, 4]: 1.06 (0.68–1.34) | Association with AKI, Unadjusted (95% CI) [3, 5]: 0.89 (0.61–1.25) | Association with AKI, Adjusted (95% CI) [3, 5]: 1.06 (0.91–1.42) | Events During the 90 days (AKI) [3]: 66 | Total endpoint (AKI events) [3]: 267 | Events at secondary end (AKI) [3]: 201 | Total Percent (incidence rate of AKI at the end of the study) [3]: 5.38%

CC1=C(C(=O)O)N2C(=O)[C@@H](NC(=O)[C@H](N)c3ccccc3)[C@H]2SC1 [Cephalexin, cephalexin]
Drug concentration, time course ([2]; Kidney, 0h): 0 | Drug concentration, time course ([2]; Kidney, 3h): 8130 | Drug concentration, time course ([2]; Kidney, 6h): 5630 | Drug concentration, time course ([2]; Kidney, 9h): 2390 | Drug concentration, time course ([2]; Kidney, 12h): 450 | Drug concentration, time course ([2]; Kidney, 15h): 30 | Drug concentration, time course ([2]; Kidney, 18h): 0 | Drug concentration, time course ([2]; Kidney, 21h): 0 | Drug concentration, time course ([2]; Kidney, 24h): 0 | Drug concentration, time course ([2]; Liver, 0h): 0 | Drug concentration, time course ([2]; Liver, 6h): 7460 | Drug concentration, time course ([2]; Liver, 9h): 4550 | Drug concentration, time course ([2]; Liver, 12h): 1650 | Drug concentration, time course ([2]; Liver, 15h): 340 | Drug concentration, time course ([2]; Liver, 18h): 80 | Drug concentration, time course ([2]; Liver, 21h): 0 | Drug concentration, time course ([2]; Liver, 24h): 0 | Drug concentration, time course ([2]; Plasma, 0h): 0 | Drug concentration, time course ([2]; Plasma, 3h): 360 | Drug concentration, time course ([2]; Plasma, 6h): 70 | Drug concentration, time course ([2]; Plasma, 9h): 30 | Drug concentration, time course ([2]; Plasma, 12h): 0 | Drug concentration, time course ([2]; Plasma, 15h): 0 | Drug concentration, time course ([2]; Plasma, 18h): 0 | Drug concentration, time course ([2]; Plasma, 21h): 0 | Drug concentration, time course ([2]; Plasma, 24h): 0 | Association with AKI, Adjusted (95% CI) [3, 4]: 1.52 (1.31–2.16) | Association with AKI, Adjusted (95% CI) [3, 5]: 1.82 (1.31–2.25) | Association with AKI compared to control drug metformin, in words [3]: increased rate of AKI; also recorded: higher risk for AKI | Events During the 90 days (AKI) [3]: 50 | Total endpoint (AKI events) [3]: 333 | Events at secondary end (AKI) [3]: 283 | Total Percent (incidence rate of AKI at the end of the study) [3]: 6.71%

CCOc1ccc(Cc2cc([C@@H]3O[C@H](CO)[C@@H](O)[C@H](O)[C@H]3O)ccc2Cl)cc1 [Dapagliflozin, dapagliflozin]
Tmax [1]: 1 h | Tmax ([1]; 3 mg/kg): 1 h | half-life ([1]; 3 mg/kg): 2.8 h | Association with AKI, Unadjusted (95% CI) [3, 4]: 0.94 (0.71–1.25) | Association with AKI, Adjusted (95% CI) [3, 4]: 0.84 (0.72–1.32) | Association with AKI, Unadjusted (95% CI) [3, 5]: 0.81 (0.63–1.33) | Association with AKI, Adjusted (95% CI) [3, 5]: 0.93 (0.58–1.24) | Events During the 90 days (AKI) [3]: 73 | Total endpoint (AKI events) [3]: 298 | Events at secondary end (AKI) [3]: 225 | Total Percent (incidence rate of AKI at the end of the study) [3]: 6% | Total Percent (incidence rate of AKI at the end of the study) ([3]; listed as dapagliflozin): 6.0%

CN(C)C(=N)N=C(N)N [Metformin, metformin]
Tmax [1]: 0.5 h | Tmax ([1]; 3 mg/kg): 0.5 h | Association with AKI, Unadjusted (95% CI) [3, 4]: 1 | Association with AKI, Adjusted (95% CI) [3, 4]: 1 | Association with AKI, Unadjusted (95% CI) [3, 5]: 1.0 (Reference) | Association with AKI, Adjusted (95% CI) [3, 5]: 1.0 (Reference) | Events During the 90 days (AKI) [3]: 69 | Total endpoint (AKI events) [3]: 330 | Events at secondary end (AKI) [3]: 261 | Total Percent (incidence rate of AKI at the end of the study) [3]: 6.64%

insulin
Cmax ([2]; Kidney): 6574 ng/mL | Tmax ([2]; Kidney): 1 h | AUC ([2]; Kidney): 26,742 ng/mL | Cmax ([2]; Liver): 6087 ng/mL | Tmax ([2]; Liver): 1 h | AUC ([2]; Liver): 19,851 ng/mL | Cmax ([2]; Plasma): 879 ng/mL | Tmax ([2]; Plasma): 1 h | AUC ([2]; Plasma): 2985 ng/mL | Tmax determined from the drug concentration in kidney and plasma (and liver) [2]: 1 h | Drug concentration, time course ([2]; Kidney, 0h): 0 | Drug concentration, time course ([2]; Kidney, 3h): 14,200 | Drug concentration, time course ([2]; Kidney, 6h): 10,400 | Drug concentration, time course ([2]; Kidney, 9h): 6400 | Drug concentration, time course ([2]; Kidney, 12h): 3700 | Drug concentration, time course ([2]; Kidney, 15h): 500 | Drug concentration, time course ([2]; Kidney, 18h): 0 | Drug concentration, time course ([2]; Kidney, 21h): 0 | Drug concentration, time course ([2]; Kidney, 24h): 0 | Drug concentration, time course ([2]; Liver, 0h): 0 | Drug concentration, time course ([2]; Liver, 3h): 9400 | Drug concentration, time course ([2]; Liver, 6h): 5050 | Drug concentration, time course ([2]; Liver, 9h): 2380 | Drug concentration, time course ([2]; Liver, 12h): 370 | Drug concentration, time course ([2]; Liver, 15h): 0 | Drug concentration, time course ([2]; Liver, 18h): 0 | Drug concentration, time course ([2]; Liver, 21h): 0 | Drug concentration, time course ([2]; Liver, 24h): 0 | Drug concentration, time course ([2]; Plasma, 0h): 0 | Drug concentration, time course ([2]; Plasma, 3h): 640 | Drug concentration, time course ([2]; Plasma, 6h): 450 | Drug concentration, time course ([2]; Plasma, 9h): 310 | Drug concentration, time course ([2]; Plasma, 12h): 50 | Drug concentration, time course ([2]; Plasma, 15h): 0 | Drug concentration, time course ([2]; Plasma, 18h): 0 | Drug concentration, time course ([2]; Plasma, 21h): 0 | Drug concentration, time course ([2]; Plasma, 24h): 0 | Association with AKI, Unadjusted (95% CI) [3, 4]: 2.26 (1.95–2.64) | Association with AKI, Adjusted (95% CI) [3, 4]: 2.36 (1.81–2.87) | Association with AKI, Unadjusted (95% CI) [3, 5]: 2.42 (1.25–2.61) | Association with AKI, Adjusted (95% CI) [3, 5]: 2.73 (2.28–2.90) | Association with AKI compared to control drug metformin, in words [3]: increased rate of AKI; also recorded: higher risk for AKI | Total endpoint (AKI events) [3]: 348 | Events at secondary end (AKI) [3]: 290

From PMC8053501 (Diabetes, Metabolic Syndrome and Obesity: Targets and …, 2021)
